Literature values, collected in PMC8583936, “Machine Learning Assisted Approach for Finding Novel High Activity Agonists of Human Ectopic Olfactory Receptors” (International Journal of Molecular Sciences, 2021).
Read-outs that look alike come from different tables or passages of the source.

How the values were obtained:
[1] = biological target: T1, OR1A1 (Homo sapiens, UniProt Q9P1Q5); settings: cited from earlier work
T1 sequence (Q9P1Q5 1-309): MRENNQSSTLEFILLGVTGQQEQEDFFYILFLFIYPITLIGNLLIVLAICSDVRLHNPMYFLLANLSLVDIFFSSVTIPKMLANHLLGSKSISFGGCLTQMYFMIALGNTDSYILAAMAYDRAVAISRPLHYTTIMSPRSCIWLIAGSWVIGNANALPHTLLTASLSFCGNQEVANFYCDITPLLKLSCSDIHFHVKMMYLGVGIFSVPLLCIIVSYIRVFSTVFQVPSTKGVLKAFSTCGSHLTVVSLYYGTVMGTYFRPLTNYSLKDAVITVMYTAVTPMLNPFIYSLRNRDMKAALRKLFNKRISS

[2] = biological target: T2, OR2W1 (Homo sapiens, UniProt Q9Y3N9); settings: cited from earlier work
T2 sequence (Q9Y3N9 1-320): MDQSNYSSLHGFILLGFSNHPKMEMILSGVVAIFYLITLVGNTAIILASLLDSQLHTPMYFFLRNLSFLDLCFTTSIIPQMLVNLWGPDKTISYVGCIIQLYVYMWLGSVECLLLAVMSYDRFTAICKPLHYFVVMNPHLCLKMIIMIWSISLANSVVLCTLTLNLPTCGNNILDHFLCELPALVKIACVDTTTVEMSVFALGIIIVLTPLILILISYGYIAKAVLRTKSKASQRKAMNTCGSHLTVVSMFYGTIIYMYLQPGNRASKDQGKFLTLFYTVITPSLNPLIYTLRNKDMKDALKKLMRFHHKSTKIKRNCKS

[3] = Table S1, ref Supplement references [1]-[9] as printed after each odorant name
[4] = Table S2, ref Supplement references [2]-[12] as printed after each odorant name

O=C(O)CCc1ccccc1 [3-Phenyl propionic acid]
Class (agonist / non-agonist / conflicting info.) for OR1A1 [1]: Non-agonist
Class (agonist / non-agonist / antagonist / conflicting info.) for OR2W1 [2]: Non-agonist

CCCC(S)CCO (stereo not shown) [3-Sulfanylhexan-1-ol]
Class (agonist / non-agonist / conflicting info.) for OR1A1 [1, 3]: Non-agonist
Class (agonist / non-agonist / antagonist / conflicting info.) for OR2W1 [2, 4]: Non-agonist

CCc1cccc(O)c1 [3-ethylphenol]
Class (agonist / non-agonist / conflicting info.) for OR1A1 [1, 3]: Non-agonist
Class (agonist / non-agonist / antagonist / conflicting info.) for OR2W1 [2, 4]: Non-agonist

CCCCC(=O)CC [3-heptanone]
Class (agonist / non-agonist / conflicting info.) for OR1A1 [1, 3]: Agonist
Class (agonist / non-agonist / antagonist / conflicting info.) for OR2W1 [2, 4]: Agonist

CC/C=C\CC=O [3-hexenal, (3z)-]
Class (agonist / non-agonist / conflicting info.) for OR1A1 [1, 3]: Non-agonist
Class (agonist / non-agonist / antagonist / conflicting info.) for OR2W1 [2, 4]: Non-agonist

Cc1cccc(O)c1 [3-methylphenol]
Class (agonist / non-agonist / conflicting info.) for OR1A1 [1]: Non-agonist
Class (agonist / non-agonist / antagonist / conflicting info.) for OR2W1 [2]: Non-agonist

CCCCCC(=O)CC [3-octanone]
Class (agonist / non-agonist / conflicting info.) for OR1A1 [1, 3]: Agonist
Class (agonist / non-agonist / antagonist / conflicting info.) for OR2W1 [2, 4]: Agonist

CCC(=O)OCCCc1ccccc1 [3-phenyl propyl propionate]
Class (agonist / non-agonist / conflicting info.) for OR1A1 [1]: Agonist
Class (agonist / non-agonist / antagonist / conflicting info.) for OR2W1 [2]: Agonist

CCC(C)c1nccnc1OC (stereo not shown) [3-secbutyl-2-methoxypyrazine]
Class (agonist / non-agonist / conflicting info.) for OR1A1 [1, 3]: Non-agonist
Class (agonist / non-agonist / antagonist / conflicting info.) for OR2W1 [2, 4]: Non-agonist

CCCCC(CC)CCC(=O)O (stereo not shown) [4-Ethyloctanoic acid]
Class (agonist / non-agonist / conflicting info.) for OR1A1 [1, 3]: Non-agonist
Class (agonist / non-agonist / antagonist / conflicting info.) for OR2W1 [2, 4]: Non-agonist

CC(=O)CC(C)(C)S [4-Mercapto-4-methyl-2-pentanone]
Class (agonist / non-agonist / conflicting info.) for OR1A1 [1, 3]: Non-agonist
Class (agonist / non-agonist / antagonist / conflicting info.) for OR2W1 [2, 4]: Non-agonist

COC1=C(C)OC(C)C1=O (stereo not shown) [4-Methoxy-2,5-dimethyl-3(2H)-furanone]
Class (agonist / non-agonist / conflicting info.) for OR1A1 [1, 3]: Non-agonist
Class (agonist / non-agonist / antagonist / conflicting info.) for OR2W1 [2, 4]: Non-agonist

COCCC(C)(C)S [4-Methoxy-2-methyl-2-butanethiol]
Class (agonist / non-agonist / conflicting info.) for OR1A1 [1, 3]: Non-agonist
Class (agonist / non-agonist / antagonist / conflicting info.) for OR2W1 [2, 4]: Non-agonist

CC(=O)c1ccc(C)cc1 [4-Methyl acetophenone]
Class (agonist / non-agonist / conflicting info.) for OR1A1 [1, 3]: Non-agonist
Class (agonist / non-agonist / antagonist / conflicting info.) for OR2W1 [2, 4]: Agonist

CCCCC(C)CCC(=O)O (stereo not shown) [4-Methyloctanoic acid]
Class (agonist / non-agonist / conflicting info.) for OR1A1 [1, 3]: Non-agonist
Class (agonist / non-agonist / antagonist / conflicting info.) for OR2W1 [2, 4]: Non-agonist

O=C1CCOc2ccccc21 [4-chromanone]
Class (agonist / non-agonist / conflicting info.) for OR1A1 [1, 3]: Agonist
Class (agonist / non-agonist / antagonist / conflicting info.) for OR2W1 [2, 4]: Agonist

C=Cc1ccc(O)cc1 [4-ethenylphenol]
Class (agonist / non-agonist / conflicting info.) for OR1A1 [1, 3]: Non-agonist
Class (agonist / non-agonist / antagonist / conflicting info.) for OR2W1 [2, 4]: Non-agonist

CCc1ccc(O)cc1 [4-ethylphenol]
Class (agonist / non-agonist / conflicting info.) for OR1A1 [1, 3]: Non-agonist
Class (agonist / non-agonist / antagonist / conflicting info.) for OR2W1 [2, 4]: Non-agonist

CC/C=C\CCC=O [4-heptenal, (4z)-]
Class (agonist / non-agonist / conflicting info.) for OR1A1 [1, 3]: Non-agonist
Class (agonist / non-agonist / antagonist / conflicting info.) for OR2W1 [2, 4]: Non-agonist

O=c1cc(O)c2ccccc2o1 [4-hydroxycoumarin]
Class (agonist / non-agonist / conflicting info.) for OR1A1 [1]: Non-agonist
Class (agonist / non-agonist / antagonist / conflicting info.) for OR2W1 [2]: Non-agonist

Cc1ccc(O)cc1 [4-methylphenol]
Class (agonist / non-agonist / conflicting info.) for OR1A1 [1, 3]: Non-agonist
Class (agonist / non-agonist / antagonist / conflicting info.) for OR2W1 [2, 4]: Non-agonist

CCCCC1OC(=O)CC1C (stereo not shown) [5-Butyl-4-methyloxolan-2-one]
Class (agonist / non-agonist / conflicting info.) for OR1A1 [1, 3]: Non-agonist
Class (agonist / non-agonist / antagonist / conflicting info.) for OR2W1 [2, 4]: Non-agonist

CCC1OC(=O)C(O)=C1C (stereo not shown) [5-Ethyl-3-hydroxy-4-methylfuran-2(5H)-one]
Class (agonist / non-agonist / conflicting info.) for OR1A1 [1, 3]: Non-agonist
Class (agonist / non-agonist / antagonist / conflicting info.) for OR2W1 [2, 4]: Non-agonist

CCCCCCC1CCC(=O)O1 (stereo not shown) [5-Hexyloxolan-2-one]
Class (agonist / non-agonist / conflicting info.) for OR1A1 [1, 3]: Non-agonist
Class (agonist / non-agonist / antagonist / conflicting info.) for OR2W1 [2, 4]: Non-agonist

CCCCCCCCC1CCC(=O)O1 (stereo not shown) [5-Octyloxolan-2-one]
Class (agonist / non-agonist / conflicting info.) for OR1A1 [1, 3]: Non-agonist
Class (agonist / non-agonist / antagonist / conflicting info.) for OR2W1 [2, 4]: Non-agonist

CCCCCC1CCC(=O)O1 (stereo not shown) [5-Pentyloxolan-2-one]
Class (agonist / non-agonist / conflicting info.) for OR1A1 [1, 3]: Agonist
Class (agonist / non-agonist / antagonist / conflicting info.) for OR2W1 [2, 4]: Non-agonist

CCCC1CCCC(=O)O1 (stereo not shown) [6-Propyloxan-2-one]
Class (agonist / non-agonist / conflicting info.) for OR1A1 [1, 3]: Non-agonist
Class (agonist / non-agonist / antagonist / conflicting info.) for OR2W1 [2, 4]: Non-agonist

COc1ccc2ccc(=O)oc2c1 [7-methoxycoumarin]
Class (agonist / non-agonist / conflicting info.) for OR1A1 [1, 3]: Non-agonist
Class (agonist / non-agonist / antagonist / conflicting info.) for OR2W1 [2, 4]: Non-agonist

CC(C)CCCCCCCCCCC=O [12-methyltridecanal]
Class (agonist / non-agonist / conflicting info.) for OR1A1 [1, 3]: Non-agonist
Class (agonist / non-agonist / antagonist / conflicting info.) for OR2W1 [2, 4]: Non-agonist

CC/C=C\CC/C=C/CO [(2E,6Z)-Nona-2,6-dien-1-ol]
Class (agonist / non-agonist / conflicting info.) for OR1A1 [1, 3]: Non-agonist
Class (agonist / non-agonist / antagonist / conflicting info.) for OR2W1 [2, 4]: Non-agonist

CCCCC[C@H](C)O [(+)-2-heptanol]
Class (agonist / non-agonist / conflicting info.) for OR1A1 [1, 3]: Non-agonist
Class (agonist / non-agonist / antagonist / conflicting info.) for OR2W1 [2, 4]: Non-agonist

CC12CCC(CC1=O)C2(C)C (stereo not drawn) [(+)-Camphor]
Class (agonist / non-agonist / conflicting info.) for OR1A1 [1, 3]: Non-agonist
Class (agonist / non-agonist / antagonist / conflicting info.) for OR2W1 [2, 4]: Non-agonist

C=C(C)[C@H]1CC=C(C)C(=O)C1 [(+)-Carvone]
Class (agonist / non-agonist / conflicting info.) for OR1A1 [1, 3]: Agonist
Class (agonist / non-agonist / antagonist / conflicting info.) for OR2W1 [2, 4]: Agonist

C=C(C)[C@@H]1CC[C@@H](C)C(=O)C1 [(+)-Dihydrocarvone]
Class (agonist / non-agonist / conflicting info.) for OR1A1 [1, 3]: Agonist
Class (agonist / non-agonist / antagonist / conflicting info.) for OR2W1 [2, 4]: Agonist

CC(C)=C1CC[C@@H](C)CC1=O [(+)-Pulegone]
Class (agonist / non-agonist / conflicting info.) for OR1A1 [1]: Non-agonist
Class (agonist / non-agonist / antagonist / conflicting info.) for OR2W1 [2]: Non-agonist

C=C1CC[C@]2(C(C)C)C[C@H]12 [(+)-Sabinene]
Class (agonist / non-agonist / conflicting info.) for OR1A1 [1, 3]: Non-agonist
Class (agonist / non-agonist / antagonist / conflicting info.) for OR2W1 [2, 4]: Non-agonist

CC1(C)[C@H]2CC[C@]1(C)C(=O)C2 [(-)-Camphor]
Class (agonist / non-agonist / conflicting info.) for OR1A1 [1, 3]: Non-agonist
Class (agonist / non-agonist / antagonist / conflicting info.) for OR2W1 [2, 4]: Non-agonist

CCCC/C=C/C=O [(E)-2-heptenal]
Class (agonist / non-agonist / conflicting info.) for OR1A1 [1, 3]: Non-agonist
Class (agonist / non-agonist / antagonist / conflicting info.) for OR2W1 [2, 4]: Agonist

CCCCCC[C@@H](C)O [(R)-(-)-2-octanol]
Class (agonist / non-agonist / conflicting info.) for OR1A1 [1, 3]: Non-agonist
Class (agonist / non-agonist / antagonist / conflicting info.) for OR2W1 [2, 4]: Non-agonist

CCCCCC[C@H](C)O [(S)-(+)-2-octanol]
Class (agonist / non-agonist / conflicting info.) for OR1A1 [1, 3]: Non-agonist
Class (agonist / non-agonist / antagonist / conflicting info.) for OR2W1 [2, 4]: Non-agonist

CCOC(C)OCC [Acetal]
Class (agonist / non-agonist / conflicting info.) for OR1A1 [1, 3]: Non-agonist
Class (agonist / non-agonist / antagonist / conflicting info.) for OR2W1 [2, 4]: Non-agonist

CC=O [Acetaldehyde]
Class (agonist / non-agonist / conflicting info.) for OR1A1 [1]: Non-agonist
Class (agonist / non-agonist / antagonist / conflicting info.) for OR2W1 [2]: Non-agonist

CC(=O)O [Acetic acid]
Class (agonist / non-agonist / conflicting info.) for OR1A1 [1, 3]: Non-agonist
Class (agonist / non-agonist / antagonist / conflicting info.) for OR2W1 [2, 4]: Non-agonist

CC(=O)C(C)O (stereo not shown) [Acetoin]
Class (agonist / non-agonist / conflicting info.) for OR1A1 [1, 3]: Non-agonist
Class (agonist / non-agonist / antagonist / conflicting info.) for OR2W1 [2, 4]: Non-agonist

CC(=O)c1ccccc1 [Acetophenone]
Class (agonist / non-agonist / conflicting info.) for OR1A1 [1]: Non-agonist
Class (agonist / non-agonist / antagonist / conflicting info.) for OR2W1 [2]: Agonist

C=CCc1ccccc1 [Allyl benzene]
Class (agonist / non-agonist / conflicting info.) for OR1A1 [1]: Non-agonist
Class (agonist / non-agonist / antagonist / conflicting info.) for OR2W1 [2]: Non-agonist

C=CCSSCC=C [Allyl disulfide]
Class (agonist / non-agonist / conflicting info.) for OR1A1 [1]: Non-agonist
Class (agonist / non-agonist / antagonist / conflicting info.) for OR2W1 [2]: Non-agonist

C=CCOC(=O)CCCCCC [Allyl heptanoate]
Class (agonist / non-agonist / conflicting info.) for OR1A1 [1]: Agonist
Class (agonist / non-agonist / antagonist / conflicting info.) for OR2W1 [2]: Non-agonist

C=CCSC [Allyl methyl sulfide]
Class (agonist / non-agonist / conflicting info.) for OR1A1 [1, 3]: Non-agonist
Class (agonist / non-agonist / antagonist / conflicting info.) for OR2W1 [2, 4]: Non-agonist

C=CCOC(=O)Cc1ccccc1 [Allyl phenylacetate]
Class (agonist / non-agonist / conflicting info.) for OR1A1 [1]: Agonist
Class (agonist / non-agonist / antagonist / conflicting info.) for OR2W1 [2]: Agonist

CC1=CC[C@H](C(C)C)C=C1 [Alpha-phellandrene]
Class (agonist / non-agonist / conflicting info.) for OR1A1 [1, 3]: Non-agonist
Class (agonist / non-agonist / antagonist / conflicting info.) for OR2W1 [2, 4]: Non-agonist

CCCCCOC(=O)CCC [Amyl butyrate]
Class (agonist / non-agonist / conflicting info.) for OR1A1 [1, 3]: Conflicting info.
Class (agonist / non-agonist / antagonist / conflicting info.) for OR2W1 [2, 4]: Non-agonist

CCCCCOC(=O)CCCCC [Amyl hexanoate]
Class (agonist / non-agonist / conflicting info.) for OR1A1 [1, 3]: Conflicting info.
Class (agonist / non-agonist / antagonist / conflicting info.) for OR2W1 [2, 4]: Non-agonist
